Experimental data as given in ChEMBL document CHEMBL1152444, “Terretonins E and F, inhibitors of the mitochondrial respiratory chain from the marine-derived fungus Aspergillus insuetus (#)” (J Nat Prod, 2009).
Activity calls are given as the source filed them. No cut-off for these calls is given here.

How the values were obtained:
[1] = species: Bos taurus; test: (§1) Inhibition of NADH oxidase in beef heart submitochondrial particles by end-window spectrophotometry
[2] = as §1; design: species or system Bos taurus

| Activity [1] | IC50 [2] | SMILES |
| --- | --- | --- |
| inactive |  | O=c1ccn([C@@H]2O[C@H](CO)[C@@H](O)[C@H]2O)c(=O)[nH]1 |
|  | 15100 nM | C=CC(C)(C)c1[nH]cnc1/C=C1/NC(=O)[C@H](C(C)C)NC1=O [AURANTIAMINE] |
|  | 3900 nM | C=C1C[C@@H]2[C@]3(C)C(=C(O)C(=O)[C@@]2(C)[C@]2(C(=O)OC)C(=O)O[C@H](C)C(=O)[C@@]12C)C(C)(C)C(=O)C[C@@H]3O [terretonin E] |
|  | 2970 nM | C=C1C[C@@H]2[C@@]3(C)C=CC(=O)C(C)(C)C3=C(O)C(=O)[C@@]2(C)[C@]2(C(=O)OC)C(=O)O[C@H](C)C(=O)[C@@]12C [terretonin F] |

| SMILES | Activity [1] | IC50 [2] |
| --- | --- | --- |
| CCCCCCCCCC[C@H](O)[C@H]1CC[C@H]([C@H]2CC[C@H]([C@H](O)CCCCCCCCCCCCC3C(=O)O[C@@H](C)[C@@H]3O)O2)O1 (stereo partly specified) [LAHERRADURIN] |  | 0.18 nM |
| C=C(C)[C@H]1Cc2c(ccc3c2O[C@@H]2COc4cc(OC)c(OC)cc4[C@@H]2C3=O)O1 [ROTENONE] |  | 5.1 nM |
